Earlier results as cited in patent US12318376B2, “Compositions of a polyorthoester and an aprotic solvent” (Heron Therapeutics, Inc., priority 2013, dated 2025).

Conditions: printed in brackets under the miscibility class

SMILES | Water Miscibility (amount in brackets)
CCOC(C)=O [ethyl acetate] | (8.3 g/100 ml)

Same assay, conditions: solvent in water, room temperature (20-25° C.)

SMILES | Water Miscibility
CC1COC(=O)O1 (stereo not drawn) [4-methyl-1,3-diololan-2-one] | water miscible
O=C1CCCN1C1CCCCC1 [N-cyclohexyl-2-pyrrolidone] | poorly miscible
CN1CCCC1=O [N-methyl-2-pyrrolidone (NMP), N-methyl-2-pyrrolidone] | water miscible
O=C(OCc1ccccc1)c1ccccc1 [benzyl benzoate] | poorly miscible
C[S+](C)[O-] [dimethyl sulfoxide] | water miscible
O=C1CCCCCO1 [ester-caprolactone] | water miscible
CCOC(C)=O [ethyl acetate] | partially miscible
CCOC(=O)C(C)O (stereo not drawn) [ethyl lactate] | water miscible
CCCCCCCC/C=C\CCCCCCCC(=O)OCC [ethyl oleate] | poorly miscible
CCCCCCCCCCCCCC(=O)OC(C)C [isopropyl myristate] | poorly miscible
COC(C)=O [methyl acetate] | water miscible
COC(=O)C(C)O (stereo not drawn) [methyl lactate] | water miscible
CCN1CCCC1=O [n-ethyl-2-pyrrolidone] | water miscible
C1CCOC1 [tetrahydrofuran] | water miscible
